Experiments:
PP2Cα = target: T1, PP2Cα (Homo sapiens, UniProt P35813); assay: PP2Cα activity on synthetic peptide substrate; format: biochemical; conditions: synthetic peptide substrate EFLR(pT)SCGS
T1 construct: purchased Division of Signal Transduction Therapy (DSTT, Dundee); host or cells: E. coli
Description: AMPKα1β1γ1 or α2β1γ1 was dephosphorylated in vitro with PP2Cα in 50 mM HEPES pH 7.4, 10 mM MgCl2, 0.1 mM EGTA, 0.03% BRIJ-35, 1 mM DTT, and the indicated compounds for 15 min at 30°C. Mg^2+ was omitted from the negative control. Reactions were terminated by 20-fold dilution and storage on ice. AMPK activity was assayed under standard conditions in the presence of saturating AMP (200 μM). The results are expressed as percentage activity of the negative control. In control experiments, PP2Cα activity was determined in reactions containing 50 mM TES pH 7.4, 0.1 mM EGTA, 25 mM MgCl2, 0.01% BRIJ-35, 0.02% (v/v) 2-mercaptoethanol, and 100 μM EFLR(pT)SCGS (168–176 AMPKα2). Liberated phosphate was determined using malachite green ([Baykov et al., 1988]).
Supplemental Figure Legends:
Figure S1, related to Figures 1-3. […] (A) Heterotrimeric AMPK complexes (10 ng) produced in both Sf9 (Sigma and Signalchem) and E.coli (in our laboratory) were analysed by Western blotting using isoform specific antibodies. […]
Figure S3, related to Figure 2. […] Results are expressed as mean Pi incorporated in nmol.min-1.mg-1 ± SD. […] Results are expressed as fold increase in activity relative to controls in the absence of compound ± SD.
(E) C2 and AMP displace a GST-AMPKγ2 subunit fusion from ATP-γ-Sepharose. […] The presence of eluted AMPKγ2 was analysed by SDS-PAGE and staining with colloidal Coomassie. […]

β1-KO hepatocytes = assay: AMPK signaling, western blotting; format: cell-based, mouse; conditions: 1 hr; A769662 100 μM
Description: (§1) Figure 7 C13 Activates Both β1 and β2 Complexes in Mouse Hepatocytes (A) Hepatocytes from WT, AMPKβ1^−/−, and AMPKβ2^−/− mice were incubated with the indicated concentrations of C13 for 1 hr. A769662 (100 μM) was included as a positive control. Lysates were analyzed using western blotting with the indicated antibodies. (B) Mouse hepatocytes from the indicated genotypes were treated with the indicated concentrations of C13 and labeled with [^3H]acetate for 4 hr. Lipogenesis was estimated from the incorporation of acetate into total lipids. Results are expressed as the mean acetate incorporated in micromoles per gram-hour ± SD.

WT and β2-KO hepatocytes = assay: AMPK signaling, western blotting; format: cell-based, mouse; conditions: 1 hr; A769662 100 μM
Description: as §1

T1 sequence (P35813 whole entry, species assumed): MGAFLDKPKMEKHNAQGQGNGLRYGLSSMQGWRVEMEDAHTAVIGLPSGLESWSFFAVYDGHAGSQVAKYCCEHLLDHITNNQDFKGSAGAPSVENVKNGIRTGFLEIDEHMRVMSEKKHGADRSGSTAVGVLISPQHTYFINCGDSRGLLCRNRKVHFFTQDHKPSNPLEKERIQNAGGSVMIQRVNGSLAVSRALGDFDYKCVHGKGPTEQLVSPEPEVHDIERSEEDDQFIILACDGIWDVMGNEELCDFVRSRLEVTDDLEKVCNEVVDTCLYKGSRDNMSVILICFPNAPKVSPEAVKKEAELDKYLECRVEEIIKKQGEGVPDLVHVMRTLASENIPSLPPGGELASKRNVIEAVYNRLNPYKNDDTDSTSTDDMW

SMILES	direct effect on PP2Cα activity (PP2Cα)	stimulation of AMPK (Thr172 phosphorylation) (β1-KO hepatocytes)	phosphorylation of Thr172 and ACC, as well as Raptor (WT and β2-KO hepatocytes)
O=P(O)(O)c1ccc(-c2cc(O)on2)o1 [Compound C2, 5-(5-hydroxyl-isoxazol-3-yl)-furan-2-phosphonic acid]	no direct effect	–	–
CC(C)C(=O)OCOP(=O)(OCOC(=O)C(C)C)c1ccc(C2=NOC(=O)C2)o1 [Compound C13]	–	modestly stimulated	robustly stimulated

Source: article PMC4104029, “Mechanism of Action of Compound-13: An α1-Selective Small Molecule Activator of AMPK” (Chemistry & Biology, 2014)
